Data on one molecule can be found in patent publication US20200069650A1, “DEXMEDETOMIDINE OR MEDETOMIDINE FOR USE IN TREATING SEPARATION ANXIETY IN DOGS” (Orion Corporation, priority 2016, published 2020).

This assay has as its system separation anxiety in dogs. Particulars: Example 6: mixed breed dog, behavioural modification supported by fluoxetine.

Method: Oromucosal dexmedetomidine gel was then administered to buccal/gingival mucosa of the dog with a syringe using a dose of 125 μg/m^2 of dexmedetomidine hydrochloride about 15 minutes prior to unscheduled departures such as shopping and visiting friends.

Consider `CNCCC(Oc1ccc(C(F)(F)F)cc1)c1ccccc1` (centres unmarked) [fluoxetine], for which the “effect of conventional therapy on regular daily work departures” value was “enabled trouble free leaving dog at home during regular daily work departures”. For the setting “before gel”, the “signs of separation anxiety at unscheduled departures under conventional therapy” value is given as “still showed signs of sepration anxiety to unscheduled departures”.
